Assay results: PubChem BioAssay AID330 (DTP/NCI, 2004)
“And” between values parts separate entries of the source, which are not always exact repeats. Equal entries are not always repeated. Toxic doses and inconclusive results are not listed.

Tested on: P388 leukemia ip, CD2F1 mice, survival T/C
Assay: NCI In Vivo Anticancer Drug Screen. Data for tumor model P388 Leukemia (intraperitoneal) in CD2F1 (CDF1) mice
Settings: endpoint: median survival time, higher = longer survival
Outline: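 Mice carrying the transplanted tumor received test compound or vehicle. Survival was recorded in each group, and the value is the treated-group measurement divided by that of the vehicle-treated control group.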

[1] = dose: 60.0 mg/kg/injection, schedule: Q01DX005 (ip), vehicle: saline with Tween-80
[2] = dose: 120.0 mg/kg/injection, schedule: Q01DX005 (ip), vehicle: saline with Tween-80
[3] = dose: 240.0 mg/kg/injection, schedule: Q01DX005 (ip), vehicle: saline with Tween-80
[4] = dose: 25.0 mg/kg/injection, schedule: Q01DX009 (ip), vehicle: saline with Tween-80
[5] = dose: 50.0 mg/kg/injection, schedule: Q01DX009 (ip), vehicle: saline with Tween-80
[6] = dose: 100.0 mg/kg/injection, schedule: Q01DX009 (ip), vehicle: saline with Tween-80
[7] = dose: 200.0 mg/kg/injection, schedule: Q01DX009 (ip), vehicle: saline with Tween-80
[8] = dose: 50.0 mg/kg/injection, schedule: Q01DX009 (ip), vehicle: suspension in saline
[9] = dose: 100.0 mg/kg/injection, schedule: Q01DX009 (ip), vehicle: suspension in saline
[10] = dose: 60.0 mg/kg/injection, schedule: Q01DX005 (ip), vehicle: saline
[11] = dose: 120.0 mg/kg/injection, schedule: Q01DX005 (ip), vehicle: saline
[12] = dose: 240.0 mg/kg/injection, schedule: Q01DX005 (ip), vehicle: saline
[13] = dose: 50.0 mg/kg/injection, schedule: Q01DX005 (ip), vehicle: Klucel (hydroxypropylcellulose) (HPC)

Cc1nc(Br)c(C(O)c2ccccc2)n1C (configuration not stated)
T/C [1]: 103 % of control
T/C [2]: 92 % of control
T/C [3]: 97 % of control

c1cc2cc(-c3cc4ccc(C5=NCCN5)cc4[nH]3)[nH]c2cc1C1=NCCN1
T/C (dose: 100.0 mg/kg/injection, schedule: Q04DX003 (ip), vehicle: saline): 210 % of control
T/C (dose: 200.0 mg/kg/injection, schedule: Q04DX003 (ip), vehicle: saline): 189 % of control
T/C (dose: 400.0 mg/kg/injection, schedule: Q04DX003 (ip), vehicle: saline): 159 % of control

COc1ccc(CC2C(=O)NC(C)C(=O)N(C)C3Cc4ccc(cc4)Oc4cc(ccc4O)CC(C(=O)NC(C)C(=O)NC(C)C(=O)N2C)N(C)C3=O)cc1 (configuration not stated)
T/C (dose: 0.19 mg/kg/injection, schedule: Q03HX024 (ip), vehicle: other): 156 % of control
T/C (dose: 0.38 mg/kg/injection, schedule: Q03HX024 (ip), vehicle: other): 171 % of control
T/C (dose: 0.45 mg/kg/injection, schedule: Q01DX005 (iv), vehicle: other): 108 % of control
T/C (dose: 0.5 mg/kg/injection, schedule: Q01DX009 (ip), vehicle: other): 161 % of control
T/C (dose: 0.75 mg/kg/injection, schedule: Q03HX024 (ip), vehicle: other): 167 % of control
T/C (dose: 0.9 mg/kg/injection, schedule: Q01DX005 (ip), vehicle: other): 166 % of control
T/C (dose: 0.9 mg/kg/injection, schedule: Q01DX005 (iv), vehicle: other): 96 % of control
T/C (dose: 1.0 mg/kg/injection, schedule: Q01DX009 (ip), vehicle: other): 172 % of control
T/C (dose: 1.0 mg/kg/injection, schedule: Q01DX009 (ip), vehicle: saline with Tween-80): 163 % of control
T/C (dose: 1.13 mg/kg/injection, schedule: Q01DX001 (iv), vehicle: other): 103 % of control
T/C (dose: 1.13 mg/kg/injection, schedule: Q03HX008 (ip), vehicle: other): 162 % of control
T/C (dose: 1.5 mg/kg/injection, schedule: Q04DX003 (ip), vehicle: other): 157 % of control
T/C (dose: 1.8 mg/kg/injection, schedule: Q01DX005 (ip), vehicle: other): 173 % of control
T/C (dose: 1.8 mg/kg/injection, schedule: Q01DX005 (iv), vehicle: other): 99 % of control
T/C (dose: 2.0 mg/kg/injection, schedule: Q01DX009 (ip), vehicle: other): 192 % of control
T/C (dose: 2.0 mg/kg/injection, schedule: Q01DX009 (ip), vehicle: saline with Tween-80): 152 % of control and 159 % of control
T/C (dose: 2.0 mg/kg/injection, schedule: Q01DX009 (oral), vehicle: other): 105 % of control
T/C (dose: 2.25 mg/kg/injection, schedule: Q01DX001 (iv), vehicle: other): 105 % of control
T/C (dose: 3.0 mg/kg/injection, schedule: Q04DX003 (ip), vehicle: other): 152 % of control
T/C (dose: 3.6 mg/kg/injection, schedule: Q01DX005 (ip), vehicle: other): 163 % of control
T/C (dose: 3.6 mg/kg/injection, schedule: Q01DX005 (iv), vehicle: other): 116 % of control
T/C (dose: 4.0 mg/kg/injection, schedule: Q01DX009 (ip), vehicle: other): 193 % of control
T/C (dose: 4.0 mg/kg/injection, schedule: Q01DX009 (ip), vehicle: saline with Tween-80): 174 % of control and 186 % of control
T/C (dose: 4.0 mg/kg/injection, schedule: Q01DX009 (oral), vehicle: other): 103 % of control
T/C (dose: 4.5 mg/kg/injection, schedule: Q01DX001 (iv), vehicle: other): 111 % of control
T/C (dose: 6.0 mg/kg/injection, schedule: Q04DX003 (ip), vehicle: other): 163 % of control
T/C (dose: 7.2 mg/kg/injection, schedule: Q01DX005 (ip), vehicle: other): 182 % of control
T/C (dose: 7.2 mg/kg/injection, schedule: Q01DX005 (iv), vehicle: other): 153 % of control
T/C (dose: 8.0 mg/kg/injection, schedule: Q01DX009 (ip), vehicle: other): 233 % of control
T/C (dose: 8.0 mg/kg/injection, schedule: Q01DX009 (ip), vehicle: saline with Tween-80): 155 % of control
T/C (dose: 8.0 mg/kg/injection, schedule: Q01DX009 (oral), vehicle: other): 96 % of control
T/C (dose: 9.0 mg/kg/injection, schedule: Q01DX001 (iv), vehicle: other): 123 % of control
T/C (dose: 12.0 mg/kg/injection, schedule: Q04DX003 (ip), vehicle: other): 153 % of control
T/C (dose: 16.0 mg/kg/injection, schedule: Q01DX009 (oral), vehicle: other): 97 % of control
T/C (dose: 32.0 mg/kg/injection, schedule: Q01DX009 (oral), vehicle: other): 94 % of control

C/C(=N\N=c1/cc(Cl)n(C)c(=O)n1C)c1ccc(Cl)cc1
T/C (dose: 50.0 mg/kg/injection, schedule: Q01DX009 (ip), vehicle: Klucel (hydroxypropylcellulose) (HPC)): 102 % of control
T/C (dose: 100.0 mg/kg/injection, schedule: Q01DX009 (ip), vehicle: Klucel (hydroxypropylcellulose) (HPC)): 99 % of control

Clc1ccc(C2=CSC3=NCCN23)cc1
T/C (dose: 12.5 mg/kg/injection, schedule: Q01DX009 (ip), vehicle: Klucel (hydroxypropylcellulose) (HPC)): 111 % of control
T/C (dose: 25.0 mg/kg/injection, schedule: Q01DX009 (ip), vehicle: Klucel (hydroxypropylcellulose) (HPC)): 110 % of control

CCCCCCCC(=O)C1C(=O)OC(C)(C)OC1=O
T/C [1]: 100 % of control
T/C [2]: 100 % of control

CCN(CC)C1=Nc2ccccc2N(c2ccccc2)C(N2CCCCC2)=C1
T/C (dose: 12.5 mg/kg/injection, schedule: Q04DX002 (ip), vehicle: Klucel (hydroxypropylcellulose) (HPC)): 99 % of control
T/C (dose: 25.0 mg/kg/injection, schedule: Q04DX002 (ip), vehicle: Klucel (hydroxypropylcellulose) (HPC)): 99 % of control
T/C (dose: 50.0 mg/kg/injection, schedule: Q04DX002 (ip), vehicle: Klucel (hydroxypropylcellulose) (HPC)): 101 % of control

O=C(O)CCNS(=O)(=O)c1ccc2c(c1)-c1ccccc1C2
T/C [4]: 92 % of control
T/C [5]: 102 % of control and 104 % of control and 97 % of control
T/C [6]: 101 % of control and 107 % of control and 98 % of control
T/C [7]: 102 % of control and 124 % of control

S=C(Nc1ccc(I)cc1)SCc1ccc2c(c1)OCO2
T/C [8]: 110 % of control
T/C [9]: 104 % of control
T/C (dose: 200.0 mg/kg/injection, schedule: Q01DX009 (ip), vehicle: suspension in saline): 101 % of control

Cc1nnc2c3[nH]c4ccccc4c3cnn12
T/C [10]: 104 % of control
T/C [11]: 95 % of control
T/C [12]: 103 % of control

NC1=NCc2c(sc3c2CCCC3)N1
T/C (dose: 12.5 mg/kg/injection, schedule: Q01DX005 (ip), vehicle: Klucel (hydroxypropylcellulose) (HPC)): 104 % of control
T/C (dose: 25.0 mg/kg/injection, schedule: Q01DX005 (ip), vehicle: Klucel (hydroxypropylcellulose) (HPC)): 104 % of control
T/C [13]: 98 % of control and 103 % of control

COc1ccc(C(=O)Nc2c(Cl)cccc2Cl)cc1OC
T/C [1]: 94 % of control
T/C [2]: 88 % of control

CC(=O)OC1(CSc2ccccc2)CCCCC1
T/C [4]: 89 % of control
T/C [5]: 101 % of control and 102 % of control
T/C [6]: 104 % of control and 109 % of control
T/C [7]: 108 % of control and 111 % of control
T/C (dose: 400.0 mg/kg/injection, schedule: Q01DX009 (ip), vehicle: saline with Tween-80): 111 % of control

COc1cccc(/C=C2/C(=O)N(c3ccc([N+](=O)[O-])cc3)N=C2C)c1
T/C (dose: 30.0 mg/kg/injection, schedule: Q01DX005 (ip), vehicle: Klucel (hydroxypropylcellulose) (HPC)): 97 % of control
T/C (dose: 60.0 mg/kg/injection, schedule: Q01DX005 (ip), vehicle: Klucel (hydroxypropylcellulose) (HPC)): 88 % of control
T/C (dose: 120.0 mg/kg/injection, schedule: Q01DX005 (ip), vehicle: Klucel (hydroxypropylcellulose) (HPC)): 98 % of control
T/C (dose: 240.0 mg/kg/injection, schedule: Q01DX005 (ip), vehicle: Klucel (hydroxypropylcellulose) (HPC)): 93 % of control

O=C(O)CCS(=O)(=O)CCC(=O)O
T/C (dose: 100.0 mg/kg/injection, schedule: Q04DX003 (ip), vehicle: saline with Tween-80): 100 % of control
T/C (dose: 200.0 mg/kg/injection, schedule: Q04DX003 (ip), vehicle: saline with Tween-80): 104 % of control

Nc1nnc(Cc2ccc(Br)cc2)o1
T/C [1]: 98 % of control
T/C [2]: 97 % of control
T/C [3]: 100 % of control

CN1C(=O)NC2(CCCCC2)C1=O
T/C [13]: 105 % of control
T/C (dose: 100.0 mg/kg/injection, schedule: Q01DX005 (ip), vehicle: Klucel (hydroxypropylcellulose) (HPC)): 100 % of control
T/C (dose: 200.0 mg/kg/injection, schedule: Q01DX005 (ip), vehicle: Klucel (hydroxypropylcellulose) (HPC)): 100 % of control

Nc1ncnc2c1ncn2C1OCC(O)C1O (configuration not stated)
T/C [8]: 119 % of control
T/C [9]: 112 % of control

COc1ccc(C(=O)C(C)(c2nc3n(c2O)C(=N)N=N3)c2nc3n(c2O)C(=N)N=N3)cc1 (configuration not stated)
T/C [10]: 100 % of control
T/C [11]: 102 % of control
T/C [12]: 106 % of control
